Reference: EP2647638A1, “Substituted tricyclic compounds with activity towards ep1 receptors” (Almirall, S.A., priority 2012, dated 2013)

Molecular target: T1, human EP1 receptor (Homo sapiens, UniProt P34995)
T1 construct: expressed in transfected cells; host or cells: HEK-293 cell membranes
T1 sequence (P34995 1-402): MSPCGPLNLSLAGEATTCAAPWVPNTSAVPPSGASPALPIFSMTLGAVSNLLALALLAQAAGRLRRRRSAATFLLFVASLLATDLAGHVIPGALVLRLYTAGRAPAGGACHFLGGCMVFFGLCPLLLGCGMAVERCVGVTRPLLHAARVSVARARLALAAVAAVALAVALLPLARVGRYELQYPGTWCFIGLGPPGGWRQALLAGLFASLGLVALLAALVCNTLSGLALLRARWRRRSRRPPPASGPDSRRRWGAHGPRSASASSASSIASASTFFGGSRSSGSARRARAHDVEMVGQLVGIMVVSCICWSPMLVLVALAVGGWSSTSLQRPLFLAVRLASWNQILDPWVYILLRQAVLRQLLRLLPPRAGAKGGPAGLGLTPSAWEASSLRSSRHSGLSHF
Experiment: Human EP1 receptor radioligand binding assay
Details: transfected HEK-293 cell membranes, [3H]-PGE2 (10 nM), pH 6.0, 25 °C for 60 minutes
Experimental: To investigate binding properties of EP1 receptor ligands to human EP1 receptor, transfected HEK-293 cell membranes and [3H]-PGE2 (Perkin Elmer) were used. In 96-well plates the assay was carried out with a total reaction volume of 250 µl, containing 25 µl of membrane suspension (30 µg protein/well), 25 µl of [3H]-PGE2 (10 nM) in either absence or presence of 25 µl of either buffer or PGE2 (10 µM) for total and non-specific binding, respectively. Binding buffer contained 10 mM MES, 1 mM MgCl2 and 1 mM EDTA at pH 6.0. Plates were incubated at 25 °C for 60 minutes. After the incubation period, 200 µl of incubate were transferred to MultiScreen HTS, FB plates (Millipore), filtered and plates were washed 6 times with ice-cold 10 mM MES, 1 mM MgCl2 and 1 mM EDTA at pH 6.0. Filters were dried and counted in a MicroBeta scintillation counter (Perkin-Elmer) using EcoScint liquid scintillation cocktail.
Percentage inhibition was calculated relating compounds activity to the 0% inhibition of the wells incubated with 10 nM [3H]-PGE2 alone (total binding) and 100% inhibition of the wells incubated with 10 nM [3H]-PGE2 plus 10 µM PGE2 (non-specific binding). Competition binding curves were carried out by assaying 6 different concentrations with duplicated points. The inhibition constant (Ki) of each compound was calculated by the Cheng-Prusoff equation: Kl = IC50 /(1+⌊L⌋/KD) [formula] where IC50 is the concentration of compound that displaces the binding of radioligand by 50%, [L] is the free concentration of radioligand and KD is the dissociation constant of each radioligand. IC50 values were obtained by fitting the data with non-linear regression using XIFit software (IDBS).

| Structure (SMILES) | Ki [nM] |
| --- | --- |
| O=C(O)c1ccc([C@@H]2Nc3ccc(Br)cc3[C@@H]3OCCC[C@H]23)cc1 [Example 2, 4-((4aR,5R,10bR)-9-bromo-3,4,4a,5,6,10b-hexahydro-2H-pyrano[3,2-c]quinolin-5-yl)benzoic acid] | > 500 |
| COc1ccc2c(c1)[C@@H]1OCCC[C@@H]1[C@H](c1ccc(C(=O)O)cc1C)N2 [Example 5, 4-((4aR, 5R, 10bR)-3,4,4a, 5,6, 10b-hexahydro-9-methoxy-2H pyrano[3,2-c]quinolin-5-yl)-3-methylbenzoic acid] | 100 to 500 |
| Cc1cc(C(=O)O)ccc1[C@H]1Nc2ccc(Cl)cc2[C@@H]2OCCC[C@H]12 (racemic) [Example 10, 4-((4aR, 5S, 10bR)-9-chloro-3,4,4a, 5,6, 10b-hexahydro-2H pyrano[3,2-c]quinolin-5-yl)-3-methylbenzoic acid] | < 100 |
| Cc1ccc2c(c1)[C@@H]1OCCC[C@@H]1[C@H](c1ccc(C(=O)O)cc1C)N2 [Example 6, 4-((4aR, 5R, 10bR)-3,4,4a, 5,6, 10b-hexahydro-9-methyl-2H pyrano[3,2-c]quinolin-5-yl)-3-methylbenzoic acid] | 100 to 500 |
